# Assay results from US11383008B2, “Surface-modified polymeric substrates grafted with a properties-imparting compound using clip chemistry” (Centre National de la Recherche Scientifique (CNRS), priority 2016, dated 2022).
# Assay: Stability of MRI-visibility of grafted substrates after incubation in PBS
# Assay type: physicochemical
# Conditions: grafted on substrates (PP meshes, thread-like shape); two months in PBS medium (pH=7.4) at 37° C.; FIG. 9C
# Protocol: Bruker 7T BIOSPEC 70/20, “mini-imaging” configuration (gradient BGA12 675 mt/m, resonator “bird cage” 35 mm). After a set of marker gradient echo sequences, a spin3D echo sequence was acquired (FOV 3*3*1 cm matrix 128*128*48, TR=3000 ms, TE=8 ms (TEeff=16), RF=8, acquisition time of 0:51) with an inversion delay of 1300 ms.
# MGE 3D sequences with TR/TE 110/3 ms and angles of 75, 30 and 15° were acquired.
# Stability of MRI-visibility for PP modified meshes after 2 months in saline phosphate buffer (pH 7.4, 37° C.) is shown in FIG. 9C.
substance,measurement,value
4-Azidoaniline Modified Gd-Diethylene Triamine Pentaacetic Acid (Gd-DTPA-biN3) Complex,MRI image after incubation (stability of MRI-visibility),does not show any image degradation
